According to US4177292A, “Novel 5H-benzocyclohepten-7-amines” (Roussel Uclaf, priority 1977, dated 1979):
Structures can show the parent of a compound that is named as a salt. Where two headings read alike, the source gives them in different places.

Assays:
[1] = test system: serotonine (5HT) uptake in synaptosomes; experiment: Inhibition of Serotonine uptake in vitro; format: biochemical; conditions: impure synaptosomes from entire brain of female rat 19 to 21 days old; 37° C., 5 minutes; 14C-5HT 10^-7 M; read-out: Inhibiting concentration IC50 of 14C-5HT uptake
Method: (§1) The inhibition of serotonine (5HT) uptake was measured in impure synaptosomes prepared from the entire brain of a female rat 19 to 21 days old using the technique of Kannengiesser et al [Biochemical Pharmacology, Vol. 22, (1973) p. 73].

[2] = test system: uptake of 14C-5HT in synaptosomes; experiment: Inhibition of Serotonine uptake in vivo (synaptosomes prepared after intraperitoneal administration); conditions: Rattus norvegicus, ip, 5 mg/kg intraperitoneal, female rats 19 to 21 days old
Method: as §1
The tested products were intraperitoneally administered to a groups of female rats 19 to 21 days old at doses of 5 mg/kg. After 1 hour or 24 hours, the brain was removed and synaptosomes were prepared and placed in an incubator in the presence of 14 C-5HT as indicated in the previous test.

[3] = test system: dogs; experiment: Anorexigenic activity; format: in vivo, dog; conditions: oral (gelules), 10 mg/kg, starved about 15 hours
Method: This activity was determined on dogs by the method of Adams et al [J. Pharm. Sci., Vol. 53 (1964), p. 1405] in which the animals received as food exclusively U.A.R. mash with a base of 800 g per day per dog. On the day of the test of a presumed anorexigenic agent, the daily individual ration of the dogs was divided into approximately equal small balls (15 to 20 g) which were offered to the dogs every 10 minutes for 8 hours. Normally the animals regularly accept the small balls successively when they are presented. […] The hourly number of refusal is determined in the animals treated with the same dose and is expressed as a percentage of the total hourly number of small balls presented per […]. At the start of the test, the animals had been starved for about 15 hours although they had drinking water available. They are deprived of water during the test. The test was effected with a group of 7 bastard dogs both male and female weighing between 11.4 and 14 kg (12.1 kg average) selected as a function of their response to a weak dose (5 mg/kg) of fenfluramine.

[4] = Acute toxicity; conditions: mouse, in vivo, ip; mice, intraperitoneal, determined 48 hours later; read-out: DL50
Method: The DL50 dose which kills 50% of mice after intraperitoneal administration of the test compound was determined 48 hours later and the DL50 for the compounds is reported in Table III.

[5] = 1 hour, read-out: % inhibition of 14C-5HT uptake after 1 Hour
[6] = 24 hours, read-out: % inhibition of 14C-5HT uptake after 24 Hours

| SMILES | IC50 [1] | inhibition at 5 mg/kg [2, 5] | inhibition at 5 mg/kg [2, 6] | oral anorexigenic activity (refusal of food balls) [3] | LD50 at 48 h [4] |
| --- | --- | --- | --- | --- | --- |
| CN(C)[C@H]1CCc2ccccc2[C@@H](Oc2ccc([N+](=O)[O-])cc2)C1 (relative stereo) [Example 1, fumarate of cis N,N-dimethyl-5-[4-nitrophenyloxy]-6,7,8,9-tetrahydro-5H-benzocycloheptene-7-amine] | 340 nM | 58 ± 4% | 67 ± 2% | important oral anorexigenic activity | 100 mg/kg |
| CN(C)[C@@H]1CCc2ccccc2[C@H](Oc2ccc(N)cc2)C1.Cl.Cl (relative stereo) [Example 2, cis N,N-dimethyl-5-[4-aminophenoxy]-6,7,8,9-tetrahydro-5H-benzocycloheptene-7-amine dihydrochloride] | 14000 nM | – | – | – | 200 mg/kg |
| CN(C)[C@@H]1CCc2ccccc2[C@H](Oc2ccc(C(F)(F)F)cc2)C1.Cl (relative stereo) [Example 3, cis N,N-dimethyl-5-[4-trifluoromethylphenoxy]-6,7,8,9-tetrahydro-5H-benzocycloheptene-7-amine hydrochloride] | 760 nM | – | – | – | 150 mg/kg |
| CN(C)[C@H]1CCc2ccccc2[C@H](Oc2ccc([N+](=O)[O-])cc2)C1.Cl (relative stereo) [Example 4, trans N,N-dimethyl-5-[4-nitrophenoxy]-6,7,8,9-tetrahydro-5H-benzocycloheptene-7-amine hydrochloride] | 83 nM | 61 ± 2% | 39 ± 4% | – | 100 mg/kg |
| CN(C)[C@@H]1CCc2ccccc2[C@H](Oc2ccccc2C(F)(F)F)C1.Cl (relative stereo) [Example 5, cis N,N-dimethyl-5-[2-trifluoromethylphenoxy]-6,7,8,9-tetrahydro-5H-benzocycloheptene-7-amine hydrochloride] | 2300 nM | – | – | – | 200 mg/kg |
| CN[C@@H]1CCc2ccccc2[C@H](Oc2ccc(C(F)(F)F)cc2)C1.Cl (relative stereo) [Example 6, cis N-methyl-5-[4-trifluoromethylphenoxy]-6,7,8,9-tetrahydro-5H-benzocycloheptene-7-amine hydrochloride] | 1900 nM | 41 ± 3% | 61 ± 3% | – | 400 mg/kg |
| CN(C)[C@@H]1CCc2ccccc2[C@H](Oc2ccc(Br)cc2)C1.Cl (relative stereo) [Example 7, cis N,N-dimethyl-5-[4-bromophenoxy]-6,7,8,9-tetrahydro-5H-benzocyclohepten-7-amine hydrochloride] | 320 nM | 40 ± 3% | 65 ± 2% | – | 150 mg/kg |
| CN(C)[C@@H]1CCc2ccccc2[C@H](Oc2ccccc2[N+](=O)[O-])C1.Cl (relative stereo) [Example 8, cis N,N-dimethyl-5-[2-nitrophenoxy]-6,7,8,9-tetrahydro-5H-benzocyclohepten-7-amine hydrochloride] | 4000 nM | – | – | – | 150 mg/kg |
| COc1ccccc1O[C@@H]1C[C@H](N(C)C)CCc2ccccc21 (relative stereo) [Example 10, cis N,N-dimethyl-5-[2-methoxyphenoxy]-6,7,8,9-tetrahydro-5H-benzocyclohepten-7-amine hydrochloride] | 1300 nM | – | – | – | – |
| COc1ccc(O[C@@H]2C[C@H](N(C)C)CCc3ccccc32)cc1 (relative stereo) [Example 11, cis N,N-dimethyl-5-[4-methoxyphenoxy]-6,7,8,9-tetrahydro-5H-benzocyclohepten-7-amine hydrochloride] | 1300 nM | – | – | – | – |
| CN(C)[C@H]1CCc2ccccc2[C@@H](Oc2ccc([N+](=O)[O-])c(C(F)(F)F)c2)C1 (relative stereo) [Example 17, cis-N,N-dimethyl-5-[4-nitro-3-trifluoromethylphenoxy]-6,7,8,9,-tetrahydro-5H-benzocyclohepten-7-amine] | 950 nM | – | – | – | > 400 mg/kg |
| CN(C)[C@H]1CCc2ccc(Cl)cc2[C@H](Oc2ccc([N+](=O)[O-])cc2)C1.Cl (relative stereo) [Example 18, trans N,N-dimethyl-3-chloro-5-[4-nitrophenoxy]-6,7,8,9-tetrahydro-5H-benzocyclohepten-7-amine hydrochloride] | 1500 nM | – | – | – | 100 mg/kg |
| CN(C)[C@H]1CCc2ccc(Cl)cc2[C@@H](Oc2ccc([N+](=O)[O-])cc2)C1 (relative stereo) [Example 19, cis N,N-dimethyl-3-chloro-5-[4-nitrophenoxy]-6,7,8,9-tetrahydro-5H-benzocyclohepten-7-amino hydrochloride] | 7100 nM | – | – | – | > 200 mg/kg |
